Measured values published in ChEMBL document CHEMBL5113405, “Discovery, enantioselective synthesis of myrtucommulone E analogues as tyrosyl-DNA phosphodiesterase 2 inhibitors and their biological activities” (Eur J Med Chem, 2022).
The source made the active and inactive calls. No cut-off for these calls is given here.

Columns and labels:
DU-145 [1] = assay: Synergistic cytotoxicity against human DU-145 cells assessed as combination index incubated for 72 hrs in presence of doxorubicin by MTT-based Chou-Talalay method; type: functional
DU-145 [2] = assay: Synergistic cytotoxicity against human DU145 cells assessed as inhibition of colony formation at 5 uM incubated for 14 days in presence of doxorubicin by crystal violet staining based analysis; type: functional, cell-based; settings: time 14.0 day
DU-145 [3] = assay: Synergistic cytotoxicity against human DU-145 cells assessed as combination index incubated for 72 hrs in presence of etoposide by MTT-based Chou-Talalay method; type: functional
[4] = Synergistic cytotoxicity against chicken DT40 cells assessed as combination index incubated for 72 hrs in presence of etoposide by MTT-based Chou-Talalay method; type: functional, Gallus gallus
DU-145 [5] = assay: Cytotoxicity against human DU-145 cells assessed as cell growth inhibition for 72 hrs in presence of etoposide by MTT assay; type: functional
A549 = assay: Cytotoxicity against human A549 cells assessed as cell growth inhibition for 72 hrs by MTT assay; type: functional; settings: Homo sapiens, A549, 72 h
[6] = Synergistic cytotoxicity against chicken DT40 cells expressing human TDP2 assessed as combination index incubated for 72 hrs in presence of etoposide by MTT-based Chou-Talalay method; type: functional, Gallus gallus
DU-145 [7] = assay: Synergistic cytotoxicity against human DU145 cells assessed as inhibition of colony formation at 5 uM incubated for 14 days in presence of etoposide by crystal violet staining based analysis; type: functional, cell-based; settings: time 14.0 day
DU-145 [8] = assay: Cytotoxicity against human DU-145 cells assessed as cell growth inhibition for 72 hrs by MTT assay; type: functional; settings: Homo sapiens, DU-145, 72 h
[9] = target: T1, Tyrosyl-DNA phosphodiesterase 2 (Homo sapiens, UniProt O95551); assay: Inhibition of N-terminal His-tagged human TDP2 expressed in Escherichia coli BL21 using 4-nitrophenyl phenylphosphonate as substrate incubated for 60 mins by EDTA based chromogenic assay
T1 sequence (O95551 whole entry): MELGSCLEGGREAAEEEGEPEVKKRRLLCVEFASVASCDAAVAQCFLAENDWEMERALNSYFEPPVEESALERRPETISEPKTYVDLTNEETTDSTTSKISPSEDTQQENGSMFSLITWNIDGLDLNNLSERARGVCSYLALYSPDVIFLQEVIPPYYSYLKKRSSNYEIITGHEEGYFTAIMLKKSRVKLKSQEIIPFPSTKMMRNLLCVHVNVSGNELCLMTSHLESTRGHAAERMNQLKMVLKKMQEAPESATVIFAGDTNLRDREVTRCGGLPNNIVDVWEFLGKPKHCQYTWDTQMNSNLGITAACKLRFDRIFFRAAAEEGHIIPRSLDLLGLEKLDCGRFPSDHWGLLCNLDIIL

CC(C)[C@@H]1C2=C(Oc3c1c(OCC(=O)N(C)C)cc1c3[C@@H](C(C)C)C3=C(O1)C(C)(C)C(=O)C(C)(C)C3=O)C(C)(C)C(=O)C(C)(C)C2=O
CI (DU-145 [1]): 0.81
Activity (DU-145 [2]): Active
CI (DU-145 [3]): 0.26
CI [4]: 0.95
inhibition (INH) (DU-145 [5]): 77%
GI50 (A549): 62 µM
CI [6]: 0.48
Activity (DU-145 [7]): Active
GI50 (DU-145 [8]): 26 µM
IC50 [9]: 5.4 µM
